Measurements taken from US11565003B2, “Mechanical opening of lipid bilayers by molecular nanomachines” (William Marsh Rice University, priority 2016, dated 2023).

System: synthetic bilipid vesicles
Experiment: BODIPY dye release from synthetic bilipid vesicles upon UV illumination
Conditions: first 15 minutes of UV exposure, 365 nm
Procedure: Premixed and dried synthetic phospholipid blend [1,2-dioleoyl-sn-glycero-3-phosphoethanolamine (DOPE): 1,2-dioleoyl-sn-glycero-3-phospho-L-serine (DOPS): 1,2-dioleoyl-sn-glycero-3-phosphocholine (DOPC) at a ratio of 5:3:2] were stored in a −20° C. freezer before use. To prepare the large unilamellar vesicles (LUVs), 5 mL 0.5× phosphate buffered saline (PBS) at pH 7.4 was added to swell the lipids solution (lipid concentration was 0.25 mg/mL). Then 7 μL of 210 μM BODIPY dye and 2 μL of 50 μM 1 (or 16 in the control experiments) were added to the solution. After incubation for 1 hour at room temperature with occasional vortexing, the lipids formed a cloudy suspension. […] The vesicles were then observed using a home-build confocal fluorescence microscope at 488 nm excitation and 535±50 nm emission.
Due to the highly non-polar nature of compound 1, it prefers to be sorbed in the bilipid membrane (FIG. 3). […] The fluorescence intensity of the BODIPY dye molecules in single vesicles was monitored using a confocal fluorescence microscope by continuously scanning a small area (20×20 μm^2).
As the UV illumination time increased from 0 to 15 minutes, the fluorescence intensity of the vesicles became dimmer (FIG. 4E). […] The average fluorescence intensity drop of 20 vesicles was 70±6% (mean±standard deviation) in the first 15 minutes of UV exposure. […]

Compound: COc1cc(C#Cc2ccc(C3=C4C(C)=C(C#CC56CC7CC(CC(C7)C5)C6)C(C)=[N+]4[B-](F)(F)n4c(C)c(C#CC56CC7CC(CC(C7)C5)C6)c(C)c43)cc2)c(OC)cc1C#Cc1ccc(C2=C3C(C)=C(C#CC45CC6CC(CC(C6)C4)C5)C(C)=[N+]3[B-](F)(F)n3c(C)c(C#CC45CC6CC(CC(C6)C4)C5)c(C)c32)cc1 [Compound 16]
- average fluorescence intensity drop of BODIPY in 20 vesicles (mean±standard deviation): 9%±20%
